Laboratory results taken from patent publication US9604975B2, “Indolyl-pyridone derivatives having checkpoint kinase 1 inhibitory activity” (Vernalis (R&D) Ltd., priority 2009, dated 2017).

Target: T1, CHK1 (Homo sapiens, UniProt O14757)
T1 construct: His; purchased Invitrogen
T1 sequence (O14757 1-476): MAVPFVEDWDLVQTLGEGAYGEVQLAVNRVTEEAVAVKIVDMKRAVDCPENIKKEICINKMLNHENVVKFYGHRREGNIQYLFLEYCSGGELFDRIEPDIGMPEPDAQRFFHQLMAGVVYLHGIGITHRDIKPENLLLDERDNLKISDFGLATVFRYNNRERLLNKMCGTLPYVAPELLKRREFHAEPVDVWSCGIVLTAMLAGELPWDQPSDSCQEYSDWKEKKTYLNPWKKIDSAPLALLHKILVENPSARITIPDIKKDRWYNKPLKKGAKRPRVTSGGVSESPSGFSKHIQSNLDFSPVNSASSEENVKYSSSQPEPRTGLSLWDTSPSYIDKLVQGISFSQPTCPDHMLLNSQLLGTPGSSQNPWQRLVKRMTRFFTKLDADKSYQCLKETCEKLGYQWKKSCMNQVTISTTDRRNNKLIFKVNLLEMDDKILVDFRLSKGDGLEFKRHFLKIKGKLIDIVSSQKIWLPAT
Assay: CHK1 Enzyme Assay (phosphorylation of Chktide peptide, 33P-ATP filter assay)
Type: biochemical
Conditions: 12.5 nM His-CHK1, 0.01 mM ATP, 40 minutes at 30° C.; read-out: CHK1 Enzyme Activity (IC50 range)
Method in brief: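 His-CHK1 (12.5 nM) phosphorylating 14.8 μM Chktide with 0.01 mM ATP plus 33P-γ-ATP, in 50 mM Hepes-NaOH pH 7.5 with 0.1 mg/mL BSA. Incubated with inhibitor for 40 min at 30 °C. Stopped with phosphoric acid; phosphopeptide captured on filter and counted by scintillation.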

Compound | IC50
O=C(Nc1c[nH]c(=O)c(-c2cc3ccccc3[nH]2)c1)c1cnn(CCCc2ccccc2)c1 [Example 94, 1-(3-Phenyl-propyl)-1H-pyrazole-4-carboxylic acid [5-(1H-indol-2-yl)-6-oxo-1,6-dihydro-pyridin-3-yl]-amide] | < 100 nM
Cc1ccc(Cn2cc(C(=O)Nc3c[nH]c(=O)c(-c4cc5cc(CN6CCOCC6)ccc5[nH]4)c3)cn2)cc1 [Example 40, 1-(4-Methyl-benzyl)-1H-pyrazole-4-carboxylic acid [5-(5-morpholin-4-ylmethyl-1H-indol-2-yl)-6-oxo-1,6-dihydro-pyridin-3-yl]-amide] | < 100 nM
CC1CCN(Cc2ccc3[nH]c(-c4cc(NC(=O)c5cnn(C(C)c6ccccc6)c5)c[nH]c4=O)cc3c2)CC1 (stereo not drawn) [Example 92, 1-(1-Phenyl-ethyl)-1H-pyrazole-4-carboxylic acid {5-[5-(4-methyl-piperidin-1-ylmethyl)-1H-indol-2-yl]-6-oxo-1,6-dihydro-pyridin-3-yl}-amide] | < 100 nM
CC(c1ccc(F)cc1)n1cc(C(=O)Nc2c[nH]c(=O)c(-c3cc4cc(CN5CCC(F)CC5)ccc4[nH]3)c2)cn1 (stereo not drawn) [Example 90, 1-[1-(Fluoro-phenyl)-ethyl]-1H-pyrrazole-4-carboxylic acid {5-[5-(4-fluoro-piperidin-1ylmethyl)-1H-indol-2-yl]-6-oxo-1,6-dihydro-pyridin-3-yl}-amide] | < 100 nM
O=C(Nc1c[nH]c(=O)c(-c2cc3ccccc3[nH]2)c1)c1cnn(Cc2ccc(F)c(F)c2)c1 [Example 24, 1-(3,4-Difluoro-benzyl)-1H-pyrazole-4-carboxylic acid [5-(1H-indol-2-yl)-6-oxo-1,6-dihydro-pyridin-3-yl]-amide] | < 100 nM
CN1CCN(Cc2cccc3[nH]c(-c4cc(NC(=O)c5cnn(Cc6ccccc6)c5)c[nH]c4=O)cc23)CC1 [Example 107, 1-Benzyl-1H-pyrazole-4-carboxylic acid {5-[4-(4-methyl-piperazin-1-ylmethyl)-1H-indol-2-yl]-6-oxo-1,6-dihydro-pyridin-3-yl}-amide] | < 100 nM
COc1ccc(Cn2cc(NC(=O)c3c[nH]c(=O)c(-c4cc5ccccc5[nH]4)c3)cn2)cc1 [Example 2, 5-(1H-Indol-2-yl)-6-oxo-1,6-dihydro-pyridine-3-carboxylic acid [1-(4-methoxy-benzyl)-1H-pyrazol-4-yl]-amide] | 100 to 500 nM
CN1CCN(Cc2ccc3[nH]c(-c4cc(NC(=O)c5cnn(Cc6ccccc6)c5)c[nH]c4=O)cc3c2)CC1 [Example 58, 1-Benzyl-1H-pyrazole-4-carboxylic acid {5-[5-(4-methyl-piperazin-1-ylmethyl)-1H-indol-2-yl]-6-oxo-1,6-dihydro-pyridin-31}-amide] | < 100 nM
O=C(Nc1c[nH]c(=O)c(-c2cc3c(CN4CCCCC4)cccc3[nH]2)c1)c1cnn(Cc2ccccc2)c1 [Example 108, 1-Benzyl-1H-pyrazole-4-carboxylic acid [6-oxo-5-(4-piperidin-1-ylmethyl-1H-indol-2-yl)-1,6-dihydro-pyridin-3-yl]-amide] | < 100 nM
O=C(Nc1c[nH]c(=O)c(-c2cc3cc(CN4CCN(CCO)CC4)ccc3[nH]2)c1)c1cnn(Cc2ccc(Cl)cc2)c1 [Example 66, 1-(4-Chloro-benzyl)-1H-pyrazole-4-carboxylic acid (5-{5-[4-(2-hydroxy-ethyl)-piperazin-1-ylmethyl]-1H-indol-2-yl}-6-oxo-1,6-dihydro-pyridin-3-yl)-amide] | < 100 nM
O=C(Nc1cnn(Cc2ccc(F)nc2)c1)c1c[nH]c(=O)c(-c2cc3ccccc3[nH]2)c1 [Example 110, 5-(1H-Indol-2-yl)-6-oxo-1,6-dihydro-pyridine-3-carboxylic acid [1-(6-fluoro-pyridin-3-ylmethyl)-1H-pyrazol-4-yl]-amide] | 100 to 500 nM
O=C(Nc1c[nH]c(=O)c(-c2cc3cc(CN4CCCC(F)C4)ccc3[nH]2)c1)c1cnn(Cc2ccccc2)c1 (stereo not drawn) [Example 57, 1-Benzyl-1H-pyrazole-4-carboxylic acid {5-[5-(3-fluoro-piperidin-1-ylmethyl)-1H-indol-2-yl]-6-oxo-1,6-dihydro-pyridin-3-yl}-amide] | < 100 nM
O=C(Nc1cnn(Cc2ccc(F)cc2)c1)c1c[nH]c(=O)c(-c2cc3ccccc3[nH]2)c1 [Example 10, 5-(1H-Indol-2-yl)-6-oxo-1,6-dihydro-pyridine-3-carboxylic acid [1-(4-fluoro-benzyl)-1H-pyrazol-4-yl]-amide] | < 100 nM
Cc1[nH]c(=O)c(-c2cc3ccccc3[nH]2)cc1NC(=O)c1cnn(Cc2ccc(F)c(F)c2)c1 [Example 33, 1-(3,4-Difluoro-benzyl)-1H-pyrazole-4-carboxylic acid [5-(1H-indol-2-yl)-2-methyl-6-oxo-1,6-dihydro-pyridin-3-yl]-amide] | 100 to 500 nM
O=C(Nc1cnn(Cc2ccc(Cl)cc2)c1)c1c[nH]c(=O)c(-c2cc3ccccc3[nH]2)c1 [Example 12, 5-(1H-Indol-2-yl)-6-oxo-1,6-dihydro-pyridine-3-carboxylic acid [1-(4-chloro-benzyl)-1H-pyrazol-4-yl]-amide] | 100 to 500 nM

The remaining lines, values ahead:

IC50 | Compound
< 100 nM | C[C@@H](c1ccccc1)n1cc(C(=O)Nc2c[nH]c(=O)c(-c3cc4cc(CN5CCC(F)CC5)ccc4[nH]3)c2)cn1 [Example 164, 1-((S)-1-Phenyl-ethyl)-1H-pyrazole-4-carboxylic acid {5-[5-(4-fluoro-piperidin-1-ylmethyl)-1H-indol-2-yl]-6-oxo-1,6-dihydro-pyridin-3-yl}-amide]
< 100 nM | CC(C)(C)c1ccc(Cn2cc(C(=O)Nc3c[nH]c(=O)c(-c4cc5cc(OCCN6CCCCC6)ccc5[nH]4)c3)cn2)cc1 [Example 151, 1-(4-tert-Butylbenzyl)-1H-pyrazole-4-carboxylic acid {5-[5-(2-piperidin-1-ylethoxy)-1H-indol-2-yl)-6-oxo-1,6-dihydropyridin-3-yl}-amide]
< 100 nM | Cc1ccc(Cn2cc(C(=O)Nc3c[nH]c(=O)c(-c4cc5cc(OCCN6CC(C)OC(C)C6)ccc5[nH]4)c3)cn2)cc1 (stereo not drawn) [Example 131, 1-(4-Methyl-benzyl)-1H-pyrazole-4-carboxylic acid (5-{5-[2-(2,6-dimethyl-morpholin-4-yl)-ethoxy]-1H-indol-2-yl}-6-oxo-1,6-dihydro-pyridin-3-yl)-amide]
< 100 nM | O=C(Nc1c[nH]c(=O)c(-c2cc3cc(OCCCN4CCCC4=O)ccc3[nH]2)c1)c1cnn(Cc2ccccc2)c1 [Example 148, 1-Benzyl-1H-pyrazole-4-carboxylic acid (6-oxo-5-{5-[3-(2-oxo-pyrrolidin-1-yl)-propoxy]-1H-indole-2-yl}-1,6-dihydro-pyridin-3-yl)-amide]
< 100 nM | CCN(CC)CCOc1ccc2[nH]c(-c3cc(NC(=O)c4cnn(Cc5ccc(C)cc5)c4)c[nH]c3=O)cc2c1 [Example 125, 1-(4-Methyl-benzyl)-1H-pyrazole-4-carboxylic acid {5-[5-(2-diethylamino-ethoxy)-1H-indol-2-yl]-6-oxo-1,6-dihydro-pyridin-3-yl}-amide]
< 100 nM | CN(C)CCCOc1ccc2[nH]c(-c3cc(NC(=O)c4cnn(Cc5ccccc5)c4)c[nH]c3=O)cc2c1 [Example 145, 1-Benzyl-1H-pyrazole-4-carboxylic acid {5-[5-(3-dimethylamino-propoxy)-1H-indol-2-yl]-6oxo-1,6-dihydro-pyridin-3-yl}-amide]
< 100 nM | Cc1ccc(Cn2cc(C(=O)Nc3c[nH]c(=O)c(-c4cc5cc(OCCCN6CCN(C)CC6)ccc5[nH]4)c3)cn2)cc1 [Example 124]
< 100 nM | CN1CCN(CCOc2ccc3[nH]c(-c4cc(NC(=O)c5cnn(Cc6ccccc6)c5)c[nH]c4=O)cc3c2)CC1 [Example 146, 1-Benzyl-1H-pyrazole-4-carboxylic acid (5-{5-[2-(4-methyl-piperazin-1-yl)-ethoxy]-1H-indol-2-yl}-6-oxo-1,6-dihydro-pyridin-3-yl)-amide]
< 100 nM | CCc1cccc(Cn2cc(C(=O)Nc3c[nH]c(=O)c(-c4cc5cc(OCCN6CCN(C)CC6)ccc5[nH]4)c3)cn2)c1 [Example 133, 1-(3-Ethyl-benzyl)-1H-pyrazole-4-carboxylic acid (5-{5-[2-(4-methyl-piperazin-1-yl)-ethoxy]-1H-indol-2-yl}-6-oxo-1,6-dihydro-pyridin-3-yl)-amide]
< 100 nM | O=C(Nc1c[nH]c(=O)c(-c2cc3cc(OCC4(CN5CCCC5)CC4)ccc3[nH]2)c1)c1cnn(Cc2ccccc2)c1 [Example 187, 1-Benzyl-1H-pyrazole-4-carboxylic acid {6-oxo 5-[5-(1-pyrrolidin-1-ylmethyl-cyclopropylmethoxy)-1H-indol-2-yl]-1,6-dihydro-pyridin-3-yl}-amide]
< 100 nM | CCN(CC)CCCOc1ccc2[nH]c(-c3cc(NC(=O)c4cnn(Cc5ccccc5)c4)c[nH]c3=O)cc2c1 [Example 139, 1-Benzyl-1H-pyrazole-4-carboxylic acid {5-[5-(3-diethylamino-propoxy)-1H-indol-2-yl]-6-oxo-1,6-dihydro-pyridin-3-yl}-amide]
< 100 nM | CN(C)[C@@H]1CCN(Cc2ccc3[nH]c(-c4cc(NC(=O)c5cnn(Cc6ccccc6)c5)c[nH]c4=O)cc3c2)C1 [Example 172, 1-Benzyl-1H-pyrazole-4-carboxylic acid {5-[5-((R)-3-dimethylamino-pyrrolidin-1-ylmethyl)-1H-indol-2-yl]-6-oxo-1,6-dihydro-pyridin-3-yl}-amide]
